Results: article PMC5574184 (Journal of medicinal chemistry, 2016)
“Also recorded” adds a separate entry of the source. Blank lines part the entries; values can stand above or below the molecule they belong to.

Key:
[1] = target: HDAC3 (Homo sapiens, UniProt O15379); experiment: ELISA-based HDAC activity assay; format: biochemical
[2] = target: HDAC2 (Homo sapiens, UniProt Q92769); experiment: ELISA-based HDAC activity assay; format: biochemical
[3] = target: HDAC1 (Homo sapiens, UniProt Q13547); experiment: ELISA-based HDAC activity assay; format: biochemical
[4] = system: global histone H3 lysine 9 (H3K9) acetylation in HCT116; experiment: Western blot analysis of global histone H3 lysine 9 acetylation; format: cell-based, human; conditions: for concentration at which significant induction of global acetylation was observed: HCT116, 24 h exposure, tested at 10 nM, 100 nM, 1 μM
[5] = NCI nontumored animal toxicity assay for acute toxicity; format: in vivo; conditions: highest dose of 50 mg/kg tested
[6] = system: 60 NCI cell lines; experiment: NCI-60 dose response assay; format: cell-based, human; conditions: for GI50 in the dose response assay (in words): most of the NCI-60 cell lines
[7] = target: T1, HDAC6 (Homo sapiens, UniProt Q9UBN7); experiment: ELISA-based HDAC activity assay; format: biochemical
T1 sequence (Q9UBN7 1-1215): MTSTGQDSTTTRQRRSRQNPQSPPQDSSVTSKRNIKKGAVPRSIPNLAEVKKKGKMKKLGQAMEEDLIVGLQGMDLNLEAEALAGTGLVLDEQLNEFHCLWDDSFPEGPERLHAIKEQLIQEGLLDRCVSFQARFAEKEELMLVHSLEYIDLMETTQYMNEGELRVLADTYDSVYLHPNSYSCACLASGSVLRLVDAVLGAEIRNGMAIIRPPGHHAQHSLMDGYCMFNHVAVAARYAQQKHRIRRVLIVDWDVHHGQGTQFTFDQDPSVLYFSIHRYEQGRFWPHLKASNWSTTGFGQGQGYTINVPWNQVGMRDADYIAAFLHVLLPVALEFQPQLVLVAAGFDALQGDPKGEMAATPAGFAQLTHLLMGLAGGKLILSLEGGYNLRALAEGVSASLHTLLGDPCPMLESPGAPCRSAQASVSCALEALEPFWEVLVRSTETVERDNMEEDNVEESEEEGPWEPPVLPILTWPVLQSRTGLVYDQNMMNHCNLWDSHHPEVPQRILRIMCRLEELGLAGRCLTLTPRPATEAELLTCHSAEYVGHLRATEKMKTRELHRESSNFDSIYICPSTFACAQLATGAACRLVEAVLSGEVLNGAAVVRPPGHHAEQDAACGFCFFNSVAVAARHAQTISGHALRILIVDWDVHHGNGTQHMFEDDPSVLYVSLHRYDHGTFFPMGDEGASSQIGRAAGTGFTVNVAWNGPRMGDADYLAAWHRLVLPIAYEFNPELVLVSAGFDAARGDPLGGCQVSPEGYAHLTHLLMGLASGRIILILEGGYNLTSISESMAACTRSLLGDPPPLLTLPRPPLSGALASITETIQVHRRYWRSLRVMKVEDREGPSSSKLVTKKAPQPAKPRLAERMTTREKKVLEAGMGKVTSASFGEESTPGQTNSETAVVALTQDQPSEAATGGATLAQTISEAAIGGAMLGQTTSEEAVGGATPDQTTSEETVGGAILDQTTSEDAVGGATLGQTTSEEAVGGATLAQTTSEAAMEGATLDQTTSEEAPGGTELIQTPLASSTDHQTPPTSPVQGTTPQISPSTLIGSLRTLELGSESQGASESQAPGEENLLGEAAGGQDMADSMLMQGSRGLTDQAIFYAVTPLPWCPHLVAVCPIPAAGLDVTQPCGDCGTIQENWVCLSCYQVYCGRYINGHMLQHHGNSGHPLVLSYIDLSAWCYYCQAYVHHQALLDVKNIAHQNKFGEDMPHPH

[8] = mouse serum, mouse microsomal proteins, cellular proteins; cited from earlier work
[9] = system: HCT116 colorectal cancer cell line; conditions: read-out: GI50 previously reported; HCT 116 cell growth inhibition; cited from earlier work

Sequence of HDAC3 (O15379 whole entry): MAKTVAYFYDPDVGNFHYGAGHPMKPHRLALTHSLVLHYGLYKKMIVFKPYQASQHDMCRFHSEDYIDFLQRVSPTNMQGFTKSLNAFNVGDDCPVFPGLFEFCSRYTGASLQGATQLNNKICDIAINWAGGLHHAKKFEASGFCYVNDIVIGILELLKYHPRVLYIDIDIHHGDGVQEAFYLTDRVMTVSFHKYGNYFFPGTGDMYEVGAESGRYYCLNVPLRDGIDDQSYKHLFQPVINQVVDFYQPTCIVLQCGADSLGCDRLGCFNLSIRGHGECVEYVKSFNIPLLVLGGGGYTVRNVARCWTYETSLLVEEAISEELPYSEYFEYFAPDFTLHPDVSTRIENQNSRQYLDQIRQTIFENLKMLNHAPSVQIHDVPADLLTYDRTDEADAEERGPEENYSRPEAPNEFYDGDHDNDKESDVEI
Sequence of HDAC3 (Q9Y618 whole entry partner): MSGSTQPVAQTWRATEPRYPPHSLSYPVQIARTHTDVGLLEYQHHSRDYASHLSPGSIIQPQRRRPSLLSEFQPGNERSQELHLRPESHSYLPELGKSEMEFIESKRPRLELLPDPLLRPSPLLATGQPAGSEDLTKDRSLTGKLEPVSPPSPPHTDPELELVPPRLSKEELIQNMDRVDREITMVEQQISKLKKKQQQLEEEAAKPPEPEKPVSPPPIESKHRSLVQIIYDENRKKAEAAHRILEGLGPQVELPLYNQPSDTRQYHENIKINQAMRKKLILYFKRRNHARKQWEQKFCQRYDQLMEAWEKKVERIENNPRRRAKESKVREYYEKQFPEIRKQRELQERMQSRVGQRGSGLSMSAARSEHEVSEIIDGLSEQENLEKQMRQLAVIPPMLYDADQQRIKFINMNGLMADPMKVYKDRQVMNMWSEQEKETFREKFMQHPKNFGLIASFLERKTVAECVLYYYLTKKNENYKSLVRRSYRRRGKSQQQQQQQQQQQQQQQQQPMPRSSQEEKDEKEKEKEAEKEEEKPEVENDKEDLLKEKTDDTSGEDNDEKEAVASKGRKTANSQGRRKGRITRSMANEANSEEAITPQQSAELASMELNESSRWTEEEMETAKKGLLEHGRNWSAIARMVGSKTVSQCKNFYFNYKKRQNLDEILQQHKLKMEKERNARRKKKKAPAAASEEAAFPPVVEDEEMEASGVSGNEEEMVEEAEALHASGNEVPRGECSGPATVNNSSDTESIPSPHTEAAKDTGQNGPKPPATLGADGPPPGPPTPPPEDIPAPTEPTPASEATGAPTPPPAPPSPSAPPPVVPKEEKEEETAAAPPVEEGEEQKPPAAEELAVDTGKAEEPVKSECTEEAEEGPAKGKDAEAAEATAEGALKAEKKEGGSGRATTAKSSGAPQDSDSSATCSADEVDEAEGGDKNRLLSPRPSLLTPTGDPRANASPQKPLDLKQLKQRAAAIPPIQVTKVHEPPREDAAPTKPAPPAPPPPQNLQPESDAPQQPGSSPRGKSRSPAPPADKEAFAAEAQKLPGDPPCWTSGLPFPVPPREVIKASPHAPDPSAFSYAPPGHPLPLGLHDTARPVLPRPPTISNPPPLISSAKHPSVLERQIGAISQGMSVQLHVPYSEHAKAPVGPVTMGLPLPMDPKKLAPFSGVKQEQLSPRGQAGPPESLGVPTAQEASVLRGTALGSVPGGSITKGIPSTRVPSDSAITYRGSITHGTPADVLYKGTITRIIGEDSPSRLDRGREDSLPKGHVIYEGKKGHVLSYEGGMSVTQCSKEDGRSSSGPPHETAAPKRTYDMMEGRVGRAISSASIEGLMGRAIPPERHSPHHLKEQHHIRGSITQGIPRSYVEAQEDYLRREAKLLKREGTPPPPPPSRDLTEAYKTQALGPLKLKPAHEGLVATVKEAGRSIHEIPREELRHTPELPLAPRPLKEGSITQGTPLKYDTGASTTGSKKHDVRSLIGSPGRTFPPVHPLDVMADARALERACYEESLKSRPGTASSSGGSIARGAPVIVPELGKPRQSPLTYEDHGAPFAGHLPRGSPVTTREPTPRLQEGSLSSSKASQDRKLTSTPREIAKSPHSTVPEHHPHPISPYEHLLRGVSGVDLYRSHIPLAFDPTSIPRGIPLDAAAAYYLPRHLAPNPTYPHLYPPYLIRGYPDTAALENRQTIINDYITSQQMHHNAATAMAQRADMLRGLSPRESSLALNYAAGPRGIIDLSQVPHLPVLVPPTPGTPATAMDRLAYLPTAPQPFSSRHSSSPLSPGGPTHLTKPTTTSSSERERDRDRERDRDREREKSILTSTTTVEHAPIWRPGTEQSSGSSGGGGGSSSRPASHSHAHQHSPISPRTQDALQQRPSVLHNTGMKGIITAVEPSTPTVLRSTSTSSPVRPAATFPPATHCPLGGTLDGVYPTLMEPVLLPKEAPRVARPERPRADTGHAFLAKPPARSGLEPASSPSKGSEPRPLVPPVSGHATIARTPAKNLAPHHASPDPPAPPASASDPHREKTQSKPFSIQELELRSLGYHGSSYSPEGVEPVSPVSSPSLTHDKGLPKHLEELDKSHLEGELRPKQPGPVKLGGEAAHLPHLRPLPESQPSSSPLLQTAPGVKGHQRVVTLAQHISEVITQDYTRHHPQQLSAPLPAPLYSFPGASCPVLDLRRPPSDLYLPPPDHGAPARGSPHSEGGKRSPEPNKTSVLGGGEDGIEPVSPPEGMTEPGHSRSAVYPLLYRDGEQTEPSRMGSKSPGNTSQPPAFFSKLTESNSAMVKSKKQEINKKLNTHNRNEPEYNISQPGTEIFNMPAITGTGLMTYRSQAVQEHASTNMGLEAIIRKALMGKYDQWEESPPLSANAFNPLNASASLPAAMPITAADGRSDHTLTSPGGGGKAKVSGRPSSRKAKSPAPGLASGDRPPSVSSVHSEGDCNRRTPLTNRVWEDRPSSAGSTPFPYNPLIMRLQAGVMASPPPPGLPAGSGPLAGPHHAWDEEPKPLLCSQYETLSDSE
Sequence of HDAC1 (Q13547 whole entry): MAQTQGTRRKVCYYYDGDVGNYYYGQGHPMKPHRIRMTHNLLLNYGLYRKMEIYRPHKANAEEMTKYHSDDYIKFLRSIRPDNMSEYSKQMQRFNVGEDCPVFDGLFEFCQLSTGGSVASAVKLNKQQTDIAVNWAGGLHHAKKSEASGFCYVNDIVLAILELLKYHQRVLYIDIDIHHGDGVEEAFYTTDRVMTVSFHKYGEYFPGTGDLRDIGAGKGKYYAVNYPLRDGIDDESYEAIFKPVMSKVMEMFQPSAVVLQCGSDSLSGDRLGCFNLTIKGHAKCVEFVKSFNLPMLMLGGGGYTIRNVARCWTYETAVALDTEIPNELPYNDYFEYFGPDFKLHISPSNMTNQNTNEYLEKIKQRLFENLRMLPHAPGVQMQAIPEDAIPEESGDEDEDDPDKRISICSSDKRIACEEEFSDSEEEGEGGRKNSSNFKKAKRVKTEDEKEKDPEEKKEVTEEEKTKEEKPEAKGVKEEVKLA
Sequence of HDAC2 (Q92769 whole entry): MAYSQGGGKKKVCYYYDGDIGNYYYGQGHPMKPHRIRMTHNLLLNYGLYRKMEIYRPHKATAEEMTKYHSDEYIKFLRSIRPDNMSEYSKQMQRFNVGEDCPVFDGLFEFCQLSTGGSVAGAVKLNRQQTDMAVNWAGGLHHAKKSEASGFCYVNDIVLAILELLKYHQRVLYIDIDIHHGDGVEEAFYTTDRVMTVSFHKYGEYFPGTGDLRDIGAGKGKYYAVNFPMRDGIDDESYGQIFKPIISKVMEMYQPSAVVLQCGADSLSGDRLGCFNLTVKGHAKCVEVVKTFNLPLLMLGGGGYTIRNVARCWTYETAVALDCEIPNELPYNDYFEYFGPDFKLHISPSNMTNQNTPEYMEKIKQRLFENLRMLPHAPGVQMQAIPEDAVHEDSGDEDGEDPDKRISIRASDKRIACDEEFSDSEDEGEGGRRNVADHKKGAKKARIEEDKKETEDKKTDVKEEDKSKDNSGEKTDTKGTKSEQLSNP

inhibition of HDAC3, single concentration screen ([1]; 2 μM): significantly | inhibition of HDAC2, single concentration screen ([2]; 2 μM): significantly | inhibition of HDAC1, single concentration screen ([3]; 2 μM): significantly
Compound: CCCCCCCC(=O)SCC/C=C/[C@@H]1CC(=O)NCCOCCOCC(=O)N[C@@H](C(C)C)C(=O)O1 [Analogue 6]

Compound: CCCCCCCC(=O)SCC/C=C/[C@@H]1CC(=O)NCc2cccc(n2)-c2cccc(n2)C(=O)N[C@@H](C(C)C)C(=O)O1 [Analogue 7]
concentration at which significant induction of global acetylation was observed [4]: 10 nM | acute toxicity [5]: no signs of toxicity; also recorded: well tolerated | concentration inhibiting the growth of most of the cancer cell lines ([6]; NCI-60 dose response): < 10 nM | GI50 in the dose response assay (in words) [6]: low nanomolar | selectivity for class I HDAC proteins (HDAC1, HDAC2, HDAC3) over class II HDAC6 ([7]; from IC50 values): at least 464 fold | inhibition of HDAC3, single concentration screen ([1]; 250 nM): significantly | inhibition of HDAC2, single concentration screen ([2]; 250 nM): significantly | inhibition of HDAC1, single concentration screen ([3]; 250 nM): significantly

Compound: CCCCCCCC(=O)SCC/C=C/[C@@H]1CC(=O)NCc2cccc(n2)CN(C)CC(=O)N[C@@H](C(C)C)C(=O)O1 [Analogue 8]
GI50 in the dose response assay (in words) [6]: micromolar GI50s | inhibition of HDAC6, single concentration screen ([7]; 1 μM): slightly greater inhibition of HDAC6 compared to 6 and 7

Compound: CCCCCCCC(=O)SCC/C=C/[C@@H]1CC(=O)NCc2cccc(n2)CN(Cc2cccc3ccccc23)CC(=O)N[C@@H](C(C)C)C(=O)O1 [Analogue 13]
global acetylation observed ([4]; HCT116, even at 100 nM): hardly any global acetylation

Compound: CCCCCCCC(=O)SCC/C=C/[C@@H]1CC(=O)NCc2nc(cs2)C2=N[C@@](C)(CS2)C(=O)N[C@@H](C(C)C)C(=O)O1 [Largazole]
metabolic conversion [8]: rapidly converted to the active metabolite largazole thiol | concentration at which significant induction of global acetylation was observed [4]: 10 nM | GI50 [9]: 44 nM
